Results published in a melting point compilation (Tetko et al.; mined from patent text by program, amines drawn as free bases though some values may be those of a salt).

Row | melting point | SMILES
1 | 123 to 125 °C | COc1cc2oc(=O)c(CCN3CCN(c4ccccc4OC)CC3)c(C)c2cc1OC(C)C
2 | 243 to 245 °C | O=C1Cc2cccc(S(=O)c3ccccc3Cl)c2N1 (stereo not drawn)
3 | 60 to 62 °C | CCCCOC(=O)CNC(=O)c1ncccc1OC
4 | 107 to 110 °C | CC(=O)c1c(-c2cccc([N+](=O)[O-])c2)cc(C(=O)NCCN2CCOCC2)nc1C
5 | 217 to 218 °C | COc1ccc2nc(SC3CCCc4ccc(O)nc43)[nH]c2c1 (stereo not drawn)
6 | 159 to 160 °C | CCC1(CC)OC(=O)Nc2ccccc21
7 | > 280 °C | O=C(NN=Cc1c(O)ccc2cc(O)ccc12)c1cc2ccccc2cc1O
8 | 58 to 60 °C | Clc1cccc2c1ccn2Cc1ccccc1
9 | 156 to 158 °C | O=C(c1cccs1)c1cnn2c(-c3cccc(NCC=C(c4ccccc4)c4ccccc4)c3)ccnc12
10 | 208 °C | CCn1c(=O)c2c(nc(/C=C/c3ccc(OC)c(C)c3C)n2C)n(CC)c1=O
11 | 228 °C | Cn1cnnc1COc1nn2c(-c3ccccc3F)nnc2cc1C1CCC1
12 | 190 to 191 °C | COC(=O)c1cccc(-n2cnc3cc(-c4ccno4)ccc32)c1
13 | 126 to 128 °C | CN(CC(=O)Nc1ccc(Cl)cc1)C(=O)OC(C)(C)C
14 | 164 to 166 °C | CCOC(=O)c1cn(-c2ccc([N+](=O)[O-])cn2)nc1SCc1ccccc1
15 | 68 °C | CCOc1nn(C(=O)NS(=O)(=O)c2ccccc2N2CCCC2)c(=O)n1C
16 | 100 to 101 °C | Oc1cccc(Cc2ccc3ccccc3c2O)c1
17 | 266 °C | Cc1ccc(-c2nc3ccccc3[nH]2)cn1
18 | 269 to 271 °C | CS(=O)(=O)c1ccc(-c2cc(=O)cc(C(=O)O)o2)cc1
19 | 296 to 301 °C | NS(=O)(=O)c1cc2[nH]c(CCl)nc2cc1Cl
20 | 154 to 156 °C | CCCCCCOc1cc(N(CC)CC)ccc1C1(c2c(C)n(CC)c3ccccc23)OC(=O)c2cccnc21 (stereo not drawn)
21 | 159 to 160 °C | COC(=O)c1ccc(CCN(C)c2cn([C@H]3CCc4c(F)cc(F)cc4C3)c(=S)[nH]2)cc1
22 | 125 to 127 °C | O=C1C(=O)c2ccc(-c3ccccc3C(F)(F)F)cc2C2=C1SCC1(CCNCC1)O2
23 | 76.5 to 78.5 °C | C=CC(=O)Nc1cccc2cccnc12
24 | 181 to 183 °C | COc1ccc([C@@H]2Sc3cc(Oc4ccccc4)ccc3NC(=O)[C@@H]2O)cc1

Row | melting point | SMILES
25 | 214 to 216 °C | O=C(NC(Cc1ccccc1Cl)C(=O)N1CCSC1)c1cc2cc(Cl)ccc2[nH]1 (stereo not drawn)
26 | 165 to 170 °C | COc1ccc(-c2cc(NC(=O)Nc3ccc(Cl)cc3)on2)cc1
27 | 227 °C | O=C(Nc1ccccc1S(=O)(=O)c1ccccc1)N[C@@H](Cc1ccc(NC(=O)c2c(Cl)cccc2Cl)cc1)C(=O)O
28 | 199 to 200 °C | O=C(O)Cc1cn(CCc2ccc(OCc3ccccc3)cc2)nc1-c1ccccc1
29 | 220 to 222 °C | CNC(=O)NC1CCCCc2sccc21 (stereo not drawn)
30 | 131 to 132 °C | Cc1c([N+](=O)[O-])cc2c(c1C)OC(C)(C)C2=O
31 | 57 to 58 °C | Clc1nccnc1OCCOc1cccc(Br)c1
32 | 89 to 91 °C | O=C(CCC(=O)N(CCO)CCO)N(CCO)CCO
33 | 213 to 215 °C | O=C(Nc1ccc(-c2ccccc2Cl)[nH]c1=O)OCc1ccccc1
34 | 166 to 168 °C | CC(=O)CC(=O)Nc1nnc(C(C)(C)C)s1
35 | 109 to 111 °C | COc1cc(C)c(C(=O)c2c(Cl)cncc2Cl)c(OC)c1OC
36 | 102 to 104 °C | O=C(CBr)c1ccc(OC2CCCCO2)cc1 (racemic)
37 | 161 to 162 °C | CN(c1cccc2cc(C3=NCC(CN4CCS(=O)CC4)S3)[nH]c12)S(=O)(=O)c1nccn1C (stereo not drawn)
38 | 58 to 63 °C | CC(C)(C#N)Cc1cccc(CC(C)(C)C#N)c1
39 | 136 to 138 °C | CC(C)(C)OC(=O)NCc1cccc(Cn2ccc(OCc3ccc(F)cc3)c(Br)c2=O)c1
40 | 126 to 127 °C | Cc1[nH]c2ccccc2c1Cc1ccncc1
41 | 206 to 208 °C | COc1cccc(CNC(=O)c2nc3ccc(C#N)cc3c(=O)[nH]2)c1
42 | 98 to 99 °C | COc1ccc(CN2CCc3cc(OCc4ccccc4)c(OC)cc3C2)cc1OC
43 | 33 to 35 °C | CCOC(=O)c1oc2ccc(Cl)cc2c1C(=O)OCC
44 | 83 to 85 °C | CC(C)(C)OC(=O)NC(O)CCO (stereo not drawn)
45 | 192 to 194 °C | O=c1[nH]c(CCCn2ccnc2)nc2ccc(Cl)cc12
46 | 135 to 138 °C | CCCCOCCOc1ccc(-c2ccc3c(c2)C=C(C(=O)Nc2ccc(S(=O)Cc4nncn4CCC)nc2)CCN3CC(C)C)cc1 (stereo not drawn)
47 | 221 to 230 °C | COc1cc2ncnc(Sc3cccc(O)c3)c2cc1OC
48 | 132 to 137 °C | Fc1cccc(F)c1-c1ncc(Oc2cccc(Cl)c2)nn1

Row | melting point | SMILES
49 | 135 °C | CCOC(=O)C1=C(N)OC(C)=C(C(=O)OC(C)C)C1c1cccc([N+](=O)[O-])c1 (stereo not drawn)
50 | 210 to 211 °C | N=C(Nc1cccc2ccccc12)Nc1cccc2ccccc12
51 | 260 to 262 °C | CC(C)(O)Cc1c(Br)cnc2c(NC(=O)c3c(Cl)cccc3Cl)cccc12
52 | 106 to 107 °C | CCc1noc(CN2C(=O)c3ccccc3C2=O)n1
53 | 136 to 137 °C | CC1(CC(O)(Cc2ccc(Cl)cc2Cl)c2cccnc2)OCCO1 (stereo not drawn)
54 | 100 to 102 °C | CCOC1=CCC(NC(C)=O)CC1 (stereo not drawn)
55 | 95 to 97 °C | COC(=O)c1ccc(OCC(=O)c2cc3cc(C(C)C)ccc3o2)cc1
56 | 218 to 221 °C | Cc1ccc(-c2c3c(cc4ccc(O)cc24)-c2ccc(O)cc2CO3)cc1C
57 | 222 to 225 °C | CN1C(=O)[C@@](NC(=O)Nc2cccc(N(C)c3nnn[nH]3)c2)(C2CCCCC2)N=Cc2ccccc21
58 | 213 to 215 °C | CC(Cl)(Cl)C(NC(=O)c1cc(Cl)cc(Cl)c1)NC(=NS(=O)(=O)C(F)(F)F)Nc1cccnc1 (stereo not drawn)
59 | 163 to 164 °C | CC(=O)c1ccc(Cn2c3c(c4cc(F)cc(F)c42)CCCC3CC(=O)O)cc1 (stereo not drawn)
60 | 208 to 209 °C | COc1cc2c(cc1OC)-c1ccc(OC)c(OC)c1C2=O
61 | 219 to 221 °C | CN(Cc1cccc2c1CN(C1CCC(=O)NC1=O)C2=O)C(=O)NC1CCCCC1 (stereo not drawn)
62 | 127 to 129 °C | O=C(c1ccccc1)N1CC(c2ccccc2)c2ccccc21 (stereo not drawn)
63 | 101 to 105 °C | C=CCOC(=O)N1C[C@@H](S)C[C@H]1CNC(=O)c1ccc(C(=O)NCc2ccc(Cl)c(Cl)c2)cn1
64 | 160 °C | CCOC(=O)c1cccc(NC(=O)N2CCC(CNC[C@H](O)COc3cccc4[nH]c5ccccc5c34)CC2)c1
65 | 162 to 164 °C | COc1cc2c(cc1CCCCN(C)C)[nH]c1cc(-c3ccccc3Cl)c3c(c12)C(=O)NC3=O
66 | 208 °C | NS(=O)(=O)c1cc(C(=O)O)cc([N+](=O)[O-])c1NCCc1ccccc1
67 | 96 to 97 °C | CCOC(=O)C1=C(CO)NC(C)=C(C(=O)OCCOCc2ccccc2)C1c1ccccc1[N+](=O)[O-] (stereo not drawn)
68 | 209 to 211 °C | COc1ccc(S(=O)(=O)N2c3ccc(Br)cc3-c3ccccc3C2c2ccccc2)cc1 (stereo not drawn)
69 | 242 to 244 °C | CSc1nc(-c2ccc(S(C)(=O)=O)cc2)n(-c2ccc(C)cc2)c(=O)c1C#N
70 | 110 to 112 °C | CN(C)c1cccc(C(=O)N2CCN(CCc3ccc(Cl)cc3)CC2)c1
71 | 97.5 to 98.5 °C | CCOc1cc(Cc2ccccn2)ccc1CCCOc1c(CC(=O)O)cccc1OC
72 | 213 °C | CC(C)(C)OC(=O)[C@H]1C[C@H](S(=O)(=O)c2ccccc2)[C@@H](c2ccccc2)N1C(=O)CNC(=O)Nc1cccc(C(=O)O)c1 (racemic)

Row | melting point | SMILES
73 | 59 to 61 °C | CC(C)CCSC1=C(O)CC(C)(C)CC1=O
74 | 185 to 190 °C | O=C(O)c1c(C(F)(F)F)nn(-c2c(Cl)cc(C(F)(F)F)cc2Cl)c1C(F)(F)F
75 | 215 to 220 °C | COc1ccccc1NC(=O)Nc1nc(Nc2ccc(-c3ccccc3)cc2)nc(N(CCC(=O)O)Cc2ccc(Cl)c(Cl)c2)n1
76 | 269 to 270 °C | CC(C)C1C(=O)NC(c2ccc(NC(=O)CCl)cc2)c2ccccc21 (stereo not drawn)
77 | 102 to 104 °C | CC1(C)OC(=O)C(C(=O)Cc2cc(F)c(F)cc2F)C(=O)O1
78 | 159 to 160 °C | C#CCc1c(C)nc2c(OCc3c(C)cccc3NC(=S)NC(=O)c3ccccc3)cccn12
79 | 132 to 134 °C | COc1ccc2c(c1)OC(CNCCCOc1cnc3ccccc3c1)CC2 (stereo not drawn)
80 | 228 to 230 °C | CC(=N)Nc1cccc(C#N)c1
81 | 288 to 289 °C | Nc1nnc(-c2ccc3ncn(-c4cc(C(F)(F)F)ccc4Cl)c3c2)o1
82 | 142 to 144 °C | O=C(OCc1ccccc1)N1CCC(O)(C(=O)O)C1 (stereo not drawn)
83 | 144 to 145 °C | CCCCCS(=O)(=O)NC(=O)CCc1cc(C(C)C)nn1Cc1ccc(C(F)(F)F)cc1Cl
84 | 120 °C | CC(C)(CCN1CCc2ccc(S(=O)(=O)Nc3cccc(Cl)c3)cc2C1)C(=O)O
85 | 228 to 230 °C | Cc1ccc(-c2nc3ccc(C)cn3c2CC(=O)O)cc1
86 | 131 to 132 °C | CCOC(=O)C1=CNC(COCCN)=C(C(=O)OC)C1c1cccc(Cl)c1Cl (stereo not drawn)
87 | 73 to 76 °C | COc1ccc2c(c1)CC(C)C2=O (stereo not drawn)
88 | 121 to 123 °C | N#Cc1cc(Cl)c(N)c(I)c1
89 | 262 to 263 °C | Cc1ccc(-n2c(-c3c4ccccc4cc4ccccc34)ccc2-c2c3ccccc3cc3ccccc23)cc1
90 | 90 to 91 °C | O=Cc1ccc(-c2ccccc2)cc1Cl
91 | 218 to 219 °C | CS(=O)c1cccc(-n2c(=O)n(Cc3ccncc3)c(=O)c3cccnc32)c1 (stereo not drawn)
92 | 169 °C | CCc1cc2oc(=O)c(C#N)c(C)c2cc1CC
93 | 187 to 189 °C | CC(C)(C)c1cc(SCc2ccc(-c3nnn[nH]3)cc2)cc(C(C)(C)C)c1
94 | 214 to 216 °C | O=C(c1ccc(F)cc1)c1cnn2c(-c3ccncc3)ccnc12
95 | 218 to 219 °C | O=C(O)CC(NS(=O)(=O)c1c(Cl)cc(Cl)cc1Cl)c1ccccc1 (stereo not drawn)
96 | 129 to 131 °C | CCCCc1oc2ccccc2c1C(=O)NCC(=O)c1ccc2cc(OC)ccc2c1

Row | SMILES | melting point
97 | CC1CC2=CC(=O)CCC2C2C(O)CC3(C)C(O)CCC3C12 (stereo not drawn) | 163 °C
98 | Cc1cc(Cl)cc(C(=O)NC2(C)CSC2)c1NC(=O)c1cc(C(F)(F)F)nn1-c1ncccc1Cl | 238 to 241 °C
